Molecules are shown by their SMILES. Some results are limits rather than exact numbers.

The target of assay [1] is T1, FKBP51 (Homo sapiens, UniProt Q13451).
T1 sequence (Q13451 42-130 limits assumed): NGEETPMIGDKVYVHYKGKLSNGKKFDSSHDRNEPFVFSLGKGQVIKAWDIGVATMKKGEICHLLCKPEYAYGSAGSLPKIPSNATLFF
Briefly: Fluorescence polarization (FP) assay, binding to the FK506-binding domain of FKBP51. To be noted: FK506-binding domain of FKBP51 (FKBP51FK1), competition with fluorescent ligand 2b. A digest of the protocol:
(§1)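 Competitive FP with fluorescent ligand 2b at 20 nM (2× concentration) and FK1 domain at 280 nM (FKBP51) or 400 nM (FKBP52) in 20 mM HEPES pH 8, 0.01% Triton-X100. Anisotropy read after 30 min at room temperature (ex 485, em 535 nm), in duplicate; IC50 by four-parameter fit, Ki via Wang competitive equation.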
Background: Polarisation of emitted light reports the rotation of a fluorescent probe.

Assay [2] has as its target T2, FKBP52 (Homo sapiens, UniProt Q02790).
T2 sequence (Q02790 50-138 limits assumed): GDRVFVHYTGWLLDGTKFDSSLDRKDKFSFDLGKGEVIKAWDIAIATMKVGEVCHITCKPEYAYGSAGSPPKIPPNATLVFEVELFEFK
The assay can be described thus: Fluorescence polarization (FP) assay, binding to the FK506-binding domain of FKBP52. The settings on record: FK506-binding domain of FKBP52 (FKBP52FK1), competition with fluorescent ligand 2b. A digest of the protocol:
as §1

One may read the Ki as a dissociation constant, usually derived from enzyme kinetics or from competition with a known ligand. Low values mean tighter binding, high ones weaker binding. In the case of `COC[C@H]1CN(Cc2cnn[nH]2)C(=O)[C@@H]2CCC[C@H]1N2S(=O)(=O)c1cc(Br)cc(C(N)=O)c1` [Compound N20, 3-(((1S,5S,6R)-3-((1H-1,2,3-triazol-5-yl)methyl)-5-(methoxymethyl)-2-oxo-3,10-diazabicyclo[4.3.1]decan-10-yl)sulfonyl)-5-bromobenzamide], the inhibition constant (Ki) in assay [1] and in assay [2] was not above 100 nM each time.

With `C#CCN1C[C@H](COC)[C@H]2CCC[C@@H](C1=O)N2S(=O)(=O)c1cc(Br)cc(C(=O)OC)c1` [Compound N11, methyl 3-bromo-5-(((1S,5S,6R)-5-(methoxymethyl)-2-oxo-3-(prop-2-yn-1-yl)-3,10-diazabicyclo[4.3.1]decan-10-yl)sulfonyl)benzoate], the Ki in assay [1] and in assay [2] was 100 to 500 nM throughout.

Regarding `CC[C@H]1CN(CCOC)C(=O)[C@@H]2CCC[C@H]1N2S(=O)(=O)c1cc(Cl)cc(Cl)c1` [Compound B15, (1S,5S,6R)-10-((3,5-dichlorophenyl)sulfonyl)-5-ethyl-3-(2-methoxyethyl)-3,10-diazabicyclo[4.3.1]decan-2-one], the Ki in assay [1] and in assay [2] was not above 100 nM throughout.

For `C=CC1CN(Cc2ccccn2)C(=O)C2CCCC1N2S(=O)(=O)c1ccc2nc(C)sc2c1` (stereo in doubt) [Compound K6, (1S,5R,6R)-10-((2-methylbenzo[d]thiazol-6-yl)sulfonyl)-3-(pyridin-2-ylmethyl)-5-vinyl-3,10-diazabicyclo[4.3.1]decan-2-one], the inhibition constant (Ki) in assay [1] and in assay [2] was not above 100 nM throughout.

Regarding `C#CCN1C[C@H](COC)[C@H]2CCC[C@@H](C1=O)N2S(=O)(=O)c1cc(Br)cc(C(N)=O)c1` [Compound N5, 3-bromo-5-(((1S,5S,6R)-5-(methoxymethyl)-2-oxo-3-(prop-2-yn-1-yl)-3,10-diazabicyclo[4.3.1]decan-10-yl)sulfonyl)benzamide], the Ki in assay [1] and in assay [2] was 100 to 500 nM each time.

With `O=C1NC[C@H](O)[C@H]2CCC[C@@H]1N2S(=O)(=O)c1cc(Cl)cc(Cl)c1` [Compound G6, (1S,5S,6R)-10-((3,5-dichlorophenyl)sulfonyl)-5-hydroxy-3,10-diazabicyclo[4.3.1]decan-2-one], the Ki in assay [1] was in the range of 500 to 1000 nM; in assay [2] it was 100 to 500 nM.

On to `C#CCN1C[C@H](COC)[C@H]2CCC[C@@H](C1=O)N2S(=O)(=O)c1nc2ccccc2[nH]1` [Compound N16, (1S,5S,6R)-10-((1H-benzo[d]imidazol-2-yl)sulfonyl)-5-(methoxymethyl)-3-(prop-2-yn-1-yl)-3,10-diazabicyclo[4.3.1]decan-2-one], for which the Ki in assay [1] and in assay [2] was 100 to 500 nM throughout.

On to `C#CCN1C[C@H](COC)[C@H]2CCC[C@@H](C1=O)N2S(=O)(=O)c1cc(Cl)cc(C(N)=O)c1` [Compound N6, 3-chloro-5-(((1S,5S,6R)-5-(methoxymethyl)-2-oxo-3-(prop-2-yn-1-yl)-3,10-diazabicyclo[4.3.1]decan-10-yl)sulfonyl)benzamide], for which the Ki in assay [1] and in assay [2] was 100 to 500 nM in each case.

As to `C=CC1CN(Cc2ccccn2)C(=O)C2CCCC1N2S(=O)(=O)c1ccc(NC(C)=O)c(Cl)c1` (stereo in doubt) [Compound K21, N-(2-chloro-4-(((1S,5R,6R)-2-oxo-3-(pyridin-2-ylmethyl)-5-vinyl-3,10-diazabicyclo[4.3.1]decan-10-yl)sulfonyl)phenyl)acetamide], the Ki in assay [1] and in assay [2] was 100 to 500 nM in each case.

Turning to `C=CC1CN(Cc2ccccn2)C(=O)C2CCCC1N2S(=O)(=O)c1cc(Cl)cc(Cl)c1` (stereo in doubt) [Compound J4, (1S,5R,6R)-10-((3,5-dichlorophenyl)sulfonyl)-3-(pyridin-2-ylmethyl)-5-vinyl-3,10-diazabicyclo[4.3.1]decan-2-one], the inhibitory constant (Ki) in assay [1] and in assay [2] was 100 to 500 nM throughout.

For the molecule `C=CC1CN(Cc2ccccn2)C(=O)C2CCCC1N2S(=O)(=O)c1cccc(F)c1` (stereo in doubt) [Compound K15, (1S,5R,6R)-10-((3-fluorophenyl)sulfonyl)-3-(pyridin-2-ylmethyl)-5-vinyl-3,10-diazabicyclo[4.3.1]decan-2-one], the Ki in assay [1] and in assay [2] was 100 to 500 nM in each case.

With `C#CCN1C[C@H](COC)[C@H]2CCC[C@@H](C1=O)N2S(=O)(=O)c1cc(Cl)c(NC(C)=O)c(Cl)c1` [Compound N9, N-(2,6-dichloro-4-(((1S,5S,6R)-5-(methoxymethyl)-2-oxo-3-(prop-2-yn-1-yl)-3,10-diazabicyclo[4.3.1]decan-10-yl)sulfonyl)phenyl)acetamide], the Ki in assay [1] and in assay [2] was 100 to 500 nM throughout.

In the case of `C=CC1CN(CC(=O)O)C(=O)C2CCCC1N2S(=O)(=O)c1cc(Cl)cc(Cl)c1` (stereo in doubt) [Compound J10, 2-((1S,5R,6R)-10-((3,5-dichlorophenyl)sulfonyl)-2-oxo-5-vinyl-3,10-diazabicyclo[4.3.1]decan-3-yl)acetic acid], the Ki in assay [1] and in assay [2] was 100 to 500 nM in each case.

Take `COC[C@H]1CN(Cc2cnn[nH]2)C(=O)[C@@H]2CCC[C@H]1N2S(=O)(=O)c1ccc(NC(C)=O)c(Cl)c1` [Compound N23, N-(4-(((1S,5S,6R)-3-((1H-1,2,3-triazol-5-yl)methyl)-5-(methoxymethyl)-2-oxo-3,10-diazabicyclo[4.3.1]decan-10-yl)sulfonyl)-2-chlorophenyl)acetamide]: the Ki in assay [1] and in assay [2] was not above 100 nM throughout.

`C#CCN1C[C@H](COC)[C@H]2CCC[C@@H](C1=O)N2S(=O)(=O)c1ccc(NC(C)=O)c(Br)c1` [Compound N7, N-(2-bromo-4-(((1S,5S,6R)-5-(methoxymethyl)-2-oxo-3-(prop-2-yn-1-yl)-3,10-diazabicyclo[4.3.1]decan-10-yl)sulfonyl)phenyl)acetamide]: the Ki in assay [1] and in assay [2] was 100 to 500 nM throughout.

`CCOC[C@H]1CN(Cc2ccccn2)C(=O)[C@@H]2CCC[C@H]1N2S(=O)(=O)c1cc(Cl)cc(Cl)c1` [Compound M6, (1S,5S,6R)-10-((3,5-dichlorophenyl)sulfonyl)-5-(ethoxymethyl)-3-(pyridin-2-ylmethyl)-3,10-diazabicyclo[4.3.1]decan-2-one]: the Ki in assay [1] and in assay [2] was not above 100 nM each time.

With `C=C[C@@H]1CN(CCCCOC)C(=O)[C@@H]2CCC[C@H]1N2S(=O)(=O)c1cc(Cl)cc(Cl)c1` [Compound J3, (1S,5R,6R)-10-((3,5-dichlorophenyl)sulfonyl)-3-(4-methoxybutyl)-5-vinyl-3,10-diazabicyclo[4.3.1]decan-2-one], the inhibitory constant (Ki) in assay [1] and in assay [2] was 500 to 1000 nM throughout.

As for `COC[C@H]1CN(Cc2cnnn2Cc2ccccc2)C(=O)[C@@H]2CCC[C@H]1N2S(=O)(=O)c1cccc(F)c1` [Compound N30, (1S,5S,6R)-3-((1-benzyl-1H-1,2,3-triazol-5-yl)methyl)-10-((3-fluorophenyl)sulfonyl)-5-(methoxymethyl)-3,10-diazabicyclo[4.3.1]decan-2-one], the Ki in assay [1] and in assay [2] was 100 to 500 nM in each case.

For the molecule `C#CCN1C[C@H](COC)[C@H]2CCC[C@@H](C1=O)N2S(=O)(=O)c1cc(Br)cc(Br)c1` [Compound N3, (1S,5S,6R)-10-((3,5-dibromophenyl)sulfonyl)-5-(methoxymethyl)-3-(prop-2-yn-1-yl)-3,10-diazabicyclo[4.3.1]decan-2-one], the Ki in assay [1] and in assay [2] was 100 to 500 nM throughout.

For the molecule `CNC[C@H]1CN(CCOC)C(=O)[C@@H]2CCC[C@H]1N2S(=O)(=O)c1cc(Cl)cc(Cl)c1` [Compound B12, (1S,5S,6R)-10-((3,5-dichlorophenyl)sulfonyl)-3-(2-methoxyethyl)-5-((methylamino)methyl)-3,10-diazabicyclo[4.3.1]decan-2-one], the Ki in assay [1] and in assay [2] was 100 to 500 nM throughout.

In the case of `COCCN1CC(CO)C2CCCC(C1=O)N2S(=O)(=O)c1cc(Cl)cc(Cl)c1` (stereo in doubt) [Compound B13, (1S,5R,6R)-10-((3,5-dichlorophenyl)sulfonyl)-5-(hydroxymethyl)-3-(2-methoxyethyl)-3,10-diazabicyclo[4.3.1]decan-2-one], the Ki in assay [1] was not above 100 nM; in assay [2], 100 to 500 nM.

`C=CC1CNC(=O)C2CCCC1N2S(=O)(=O)c1cc(Cl)cc(Cl)c1` (stereo in doubt) [Compound I8, (1S,5R,6R)-10-((3,5-dichlorophenyl)sulfonyl)-5-vinyl-3,10-diazabicyclo[4.3.1]decan-2-one]: the inhibition constant (Ki) in assay [1] and in assay [2] was 500 to 1000 nM in each case.

As to `C=C[C@@H]1CN(Cc2ccccn2)C(=O)[C@@H]2CCC[C@H]1N2S(=O)(=O)c1cccc(C#N)c1` [Compound K7, 3-(((1S,5R,6R)-2-oxo-3-(pyridin-2-ylmethyl)-5-vinyl-3,10-diazabicyclo[4.3.1]decan-10-yl)sulfonyl)benzonitrile], the Ki in assay [1] and in assay [2] was 100 to 500 nM each time.

Consider `C=CC1CN(Cc2ccccn2)C(=O)C2CCCC1N2S(=O)(=O)c1ccc2ncsc2c1` (stereo in doubt) [Compound K9, (1S,5R,6R)-10-(benzo[d]thiazol-6-ylsulfonyl)-3-(pyridin-2-ylmethyl)-5-vinyl-3,10-diazabicyclo[4.3.1]decan-2-one], for which the inhibition constant (Ki) in assay [1] and in assay [2] was 100 to 500 nM each time.
